# Experimental data as given in patent publication US20250361209A1, “CRYSTAL FORMS OF N-(3-FLUOROPHENYL)-6-(6,7-DIMETHOXYQUINOLIN-4-OXY)-3,4-DIHYDROQUINOLINE-1(2H)-CARBOXAMIDE METHANESULFONATE AND PREPARATION METHOD THEREOF” (Shanghai Yi Feng Biotechnology Co., Ltd., priority 2023, published 2025).
# Read-outs that look alike come from different tables or passages of the source.
# Experiments:
# [1] = Test of influencing factors of crystalline forms A, B and C (total impurity); assay type: physicochemical; settings: methanesulfonate
# Source text: Example 3 Test of Influencing Factors of Crystalline Forms A, B and C
# [2] = Comparison of oral absorption of K-13 (free base) and its methanesulfonate, plasma concentration-time and PK; assay type: in vivo, BALB/c mice; settings: 10 mg · kg^−1 PO; for concentration at 8 h / concentration at 24 h / concentration at 0 h: 10 mg · kg^−1, BALB/c mice
# Source text: Comparison of oral absorption of K-13 (free base) and its methanesulfonate (N-(3-fluorophenyl)-6-(6. 7-dimethoxyquinolin-4-oxy)-3.4-dihydroquinoline-1(2H)-carboxamide methanesulfonate)
# [3] = BALB/c mice, analyte K-13-1, methanesulfonate
smiles,measurement,setting,value
"COc1cc2nccc(Oc3ccc4c(c3)CCCN4C(=O)Nc3cccc(F)c3)c2cc1OC [Crystalline form A, N-(3-fluorophenyl)-6-(6,7-dimethoxyquinolin-4-oxy)-3,4-dihydroquinoline-1(2H)-carboxamide methanesulfonate]",Total impurity %,"[1]; High humidity (RH75%), 0 day",0.91%
same,Total impurity %,"[1]; High humidity (RH75%), 5 days",0.92%
same,Total impurity %,"[1]; High humidity (RH75%), 10 days",0.99%
same,Total impurity %,"[1]; High humidity (RH75%), 30 days",1.25%
same,Total impurity %,"[1]; High temperature (60° C.), 0 day",0.91%
same,Total impurity %,"[1]; High temperature (60° C.), 5 days",4.50%
same,Total impurity %,"[1]; High temperature (60° C.), 10 days",6.96%
same,Total impurity %,"[1]; Illumination (5000 + 500 lux), 0 day",0.91%
same,Total impurity %,"[1]; Illumination (5000 + 500 lux), 5 days",1.89%
same,Total impurity %,"[1]; Illumination (5000 + 500 lux), 10 days",3.70%
same,Total impurity %,"[1]; Illumination (5000 + 500 lux), 30 days",4.21%
"COc1cc2nccc(Oc3ccc4c(c3)CCCN4C(=O)Nc3cccc(F)c3)c2cc1OC [K-13-1, N-(3-fluorophenyl)-6-(6,7-dimethoxyquinolin-4-oxy)-3,4-dihydroquinoline-1(2H)-carboxamide]","plasma Concentration of K-13-1, PO-1","[2]; BALB/c mice, 0.083 h, animal PO-1",29.6 ng/mL
same,"plasma Concentration of K-13-1, PO-2","[2]; BALB/c mice, 0.083 h, animal PO-2",46.6 ng/mL
same,"plasma Concentration of K-13-1, Mean","[2]; BALB/c mice, 0.083 h, mean",38.1 ng/mL
same,"plasma Concentration of K-13-1, PO-1","[2]; BALB/c mice, 0.25 h, animal PO-1",186 ng/mL
same,"plasma Concentration of K-13-1, PO-2","[2]; BALB/c mice, 0.25 h, animal PO-2",215 ng/mL
same,"plasma Concentration of K-13-1, Mean","[2]; BALB/c mice, 0.25 h, mean",201 ng/mL
same,"plasma Concentration of K-13-1, PO-1","[2]; BALB/c mice, 0.5 h, animal PO-1",480 ng/mL
same,"plasma Concentration of K-13-1, PO-2","[2]; BALB/c mice, 0.5 h, animal PO-2",865 ng/mL
same,"plasma Concentration of K-13-1, Mean","[2]; BALB/c mice, 0.5 h, mean",673 ng/mL
same,"plasma Concentration of K-13-1, PO-1","[2]; BALB/c mice, 1 h, animal PO-1",551 ng/mL
same,"plasma Concentration of K-13-1, PO-2","[2]; BALB/c mice, 1 h, animal PO-2",420 ng/mL
same,"plasma Concentration of K-13-1, Mean","[2]; BALB/c mice, 1 h, mean",485 ng/mL
same,"plasma Concentration of K-13-1, PO-1","[2]; BALB/c mice, 2 h, animal PO-1",136 ng/mL
same,"plasma Concentration of K-13-1, PO-2","[2]; BALB/c mice, 2 h, animal PO-2",485 ng/mL
same,"plasma Concentration of K-13-1, Mean","[2]; BALB/c mice, 2 h, mean",311 ng/mL
same,"plasma Concentration of K-13-1, PO-1","[2]; BALB/c mice, 4 h, animal PO-1",220 ng/mL
same,"plasma Concentration of K-13-1, PO-2","[2]; BALB/c mice, 4 h, animal PO-2",395 ng/mL
same,"plasma Concentration of K-13-1, Mean","[2]; BALB/c mice, 4 h, mean",308 ng/mL
same,"plasma Concentration of K-13-1, PO-1","[2]; BALB/c mice, 24 h, animal PO-1",BLOQ
same,AUC0-inf,"[2]; BALB/c mice, analyte K-13-1",2894 ng·h/mL
same,AUC0-t,"[2]; BALB/c mice, analyte K-13-1",2870 ng·h/mL
same,Cmax,"[2]; BALB/c mice, analyte K-13-1",673 ng/mL
same,Kel,"[2]; BALB/c mice, analyte K-13-1",0.200 h⁻¹
same,F (oral bioavailability),"[2]; BALB/c mice, analyte K-13-1, listed as free base",20%
same,concentration at 8 h,"[2]; BALB/c, mouse, plasma, po, 8 h, animal PO-1, read-out: plasma Concentration of K-13-1, PO-1",97.2 ng/mL
same,concentration at 8 h,"[2]; BALB/c, mouse, plasma, po, 8 h, animal PO-2, read-out: plasma Concentration of K-13-1, PO-2",58.8 ng/mL
same,concentration at 8 h,"[2]; BALB/c, mouse, plasma, po, 8 h, mean, read-out: plasma Concentration of K-13-1, Mean",78 ng/mL
same,concentration at 24 h,"[2]; BALB/c, mouse, plasma, po, 24 h, animal PO-2, read-out: plasma Concentration of K-13-1, PO-2",4.65 ng/mL
same,concentration at 24 h,"[2]; BALB/c, mouse, plasma, po, 24 h, mean, read-out: plasma Concentration of K-13-1, Mean",4.65 ng/mL
same,half-life,"[2]; BALB/c, mouse, plasma, po, 10 mg/kg, BALB/c mice, analyte K-13-1",3.5 h
same,Tmax,"[2]; BALB/c, mouse, plasma, po, 10 mg/kg, BALB/c mice, analyte K-13-1, read-out: Tmax",0.5 h
"COc1cc2nccc(Oc3ccc4c(c3)CCCN4C(=O)Nc3cccc(F)c3)c2cc1OC [K-13-MS-1, N-(3-fluorophenyl)-6-(6,7-dimethoxyquinolin-4-oxy)-3,4-dihydroquinoline-1(2H)-carboxamide methanesulfonate]",increase of in vivo exposure AUClast versus free base,[2]; BALB/c mice,2.46 times
same,increase of in vivo exposure Cmax versus free base,[2]; BALB/c mice,3.14 times
same,"plasma Concentration of K-13-1, PO-1","[2]; BALB/c mice, 0.083 h, animal PO-1, methanesulfonate",431 ng/mL
same,"plasma Concentration of K-13-1, PO-2","[2]; BALB/c mice, 0.083 h, animal PO-2, methanesulfonate",414 ng/mL
same,"plasma Concentration of K-13-1, Mean","[2]; BALB/c mice, 0.083 h, mean, methanesulfonate",423 ng/mL
same,"plasma Concentration of K-13-1, PO-1","[2]; BALB/c mice, 0.25 h, animal PO-1, methanesulfonate",2175 ng/mL
same,"plasma Concentration of K-13-1, PO-2","[2]; BALB/c mice, 0.25 h, animal PO-2, methanesulfonate",2059 ng/mL
same,"plasma Concentration of K-13-1, Mean","[2]; BALB/c mice, 0.25 h, mean, methanesulfonate",2117 ng/mL
same,"plasma Concentration of K-13-1, PO-1","[2]; BALB/c mice, 0.5 h, animal PO-1, methanesulfonate",1868 ng/mL
same,"plasma Concentration of K-13-1, PO-2","[2]; BALB/c mice, 0.5 h, animal PO-2, methanesulfonate",1775 ng/mL
same,"plasma Concentration of K-13-1, Mean","[2]; BALB/c mice, 0.5 h, mean, methanesulfonate",1822 ng/mL
same,"plasma Concentration of K-13-1, PO-1","[2]; BALB/c mice, 1 h, animal PO-1, methanesulfonate",1824 ng/mL
same,"plasma Concentration of K-13-1, PO-2","[2]; BALB/c mice, 1 h, animal PO-2, methanesulfonate",1317 ng/mL
same,"plasma Concentration of K-13-1, Mean","[2]; BALB/c mice, 1 h, mean, methanesulfonate",1571 ng/mL
same,"plasma Concentration of K-13-1, PO-1","[2]; BALB/c mice, 2 h, animal PO-1, methanesulfonate",922 ng/mL
same,"plasma Concentration of K-13-1, PO-2","[2]; BALB/c mice, 2 h, animal PO-2, methanesulfonate",1319 ng/mL
same,"plasma Concentration of K-13-1, Mean","[2]; BALB/c mice, 2 h, mean, methanesulfonate",1121 ng/mL
same,"plasma Concentration of K-13-1, PO-1","[2]; BALB/c mice, 4 h, animal PO-1, methanesulfonate",884 ng/mL
same,"plasma Concentration of K-13-1, PO-2","[2]; BALB/c mice, 4 h, animal PO-2, methanesulfonate",981 ng/mL
same,"plasma Concentration of K-13-1, Mean","[2]; BALB/c mice, 4 h, mean, methanesulfonate",932 ng/mL
same,"plasma Concentration of K-13-1, PO-1","[2]; BALB/c mice, 8 h, animal PO-1, methanesulfonate",130 ng/mL
same,"plasma Concentration of K-13-1, PO-2","[2]; BALB/c mice, 8 h, animal PO-2, methanesulfonate",89.0 ng/mL
same,"plasma Concentration of K-13-1, Mean","[2]; BALB/c mice, 8 h, mean, methanesulfonate",109 ng/mL
same,"plasma Concentration of K-13-1, PO-2","[2]; BALB/c mice, 24 h, animal PO-2, methanesulfonate",BLOQ
same,"plasma Concentration of K-13-1, Mean","[2]; BALB/c mice, 24 h, mean, methanesulfonate",BLOQ
same,AUC0-inf,[2]; [3],7350 ng·h/mL
same,AUC0-t,[2]; [3],7051 ng·h/mL
same,Cmax,[2]; [3],2117 ng/mL
same,F (oral bioavailability),[2]; [3],50%
same,Kel,[2]; [3],0.364 h⁻¹
same,T1/2,[2]; [3],1.9 h
same,Tmax,[2]; [3],0.25 h
same,concentration at 0 h,"[2]; BALB/c, mouse, plasma, po, animal PO-1, read-out: plasma Concentration of K-13-1, PO-1",0 ng/mL
same,concentration at 0 h,"[2]; BALB/c, mouse, plasma, po, animal PO-2, read-out: plasma Concentration of K-13-1, PO-2",0 ng/mL
same,concentration at 0 h,"[2]; BALB/c, mouse, plasma, po, mean, read-out: plasma Concentration of K-13-1, Mean",0 ng/mL
